The results in this text go back to article PMC6476888, “Design and synthesis of anticancer 1-hydroxynaphthalene-2-carboxanilides with a p53 independent mechanism of action” (Scientific Reports, 2019).

Holding throughout (assay type): cell-based, human
The subject of one assay is HCT116 cells. In words: AO/EB staining apoptosis assay. Conditions: HCT116 p53^+/+ and p53^−/−, IC50 concentration. The method, then: Three compounds with a distinct activity were selected for further tests. […] The apoptosis of the cells that were treated with the active compounds was confirmed using the Acridine Orange (AO)/Ethidium Bromide (EB) staining test[70] (Fig. 5).
The dual acridine orange/ethidium bromide (AO/EB) staining method was used for the morphological analysis of apoptosis. The cells were seeded on coverslips at a density of 8·10^5 cells/slide and incubated at 37 °C for 48 h. Then, the medium was removed and solutions of 5 s, 5 u, 7 f and DOX at the IC50 concentration were added. After 24 h, the cells were washed with PBS, and then the cells were incubated in a staining solution (100 μg/mL AO and 100 μg/mL EB in PBS) (Sigma-Aldrich, St. Louis, MO, USA) for 3–4 min. After staining, the coverslips were washed with PBS and fixed with 3.7% paraformaldehyde for 15 min. Observations and photography were performed with a Nikon Eclipse Ni-U fluorescent microscope equipped with the sets of filters for AO and EB (excitation filter 450–490, barrier filter BA520).

The test system of assay [1] is p53/p21 system in the HCT116 cells. In words: Western blot of p53/p21 activation. As to the method:
Further exploration of the cell death model was performed by a western blot analysis of protein activation in response to incubation with the tested compound (Figs 6, 7). […] The proapoptotic activation of the p53/p21 system was noticeable after the first 12 hours and then became stronger after 24 h. This effect was not observed in the case of the p53 null cells, which were unable to synthesize this protein.
The HCT116 cells were seeded in 3-cm Petri dishes (Nunc) at a density of 0.5·10^6 cells/well and incubated overnight. […] The cells were harvested by trypsinization and washed with cold PBS. Next, the cells were centrifuged and suspended in an RIPA buffer (Thermo-Fisher Scientific) containing Halt Protease Inhibitor Cocktail (Thermo-Fisher Scientific), Halt Phosphatase Inhibitor Cocktail (Thermo-Fisher Scientific) along with 0.5 M EDTA and lysed for 20 min on ice. Then, the lysates were sonicated, centrifuged at 10,000 rpm for 10 min at 4 °C and the supernatants were collected for further analysis. The protein concentration was determined using a Micro BCA™ Protein Assay Kit (Thermo-Fisher Scientific, Waltham, MA, USA c) according to the manufacturer’s instructions. Equal amounts of the proteins (20 μg) were electrophoresed on SDS-Page gels and transferred onto nitrocellulose membranes. The membranes were blocked in 5% non-fat milk prepared in PBS containing 0.1% Tween-20 (TPBS) for 1 h. After blocking, the membranes were incubated with specific primary antibodies: p21^Waf1/Cip1, p53, cytochrome c, caspase-8, caspase-9, AIF, PARP, GAPDH and β-Actin overnight at 4 °C, and then washed and incubated with horseradish peroxidase (HRP)-conjugated secondary antibodies for 1 h at room temperature. All of the antibodies were purchased from CellSignaling (Danvers, MA, USA) and were diluted 1:1000 in 5% milk in TPBS. Finally, the membranes were washed and incubated with a SuperSignal™ West Pico Chemiluminescent Substrate (Thermo-Fisher Scientific). The chemiluminescence signals were captured using a ChemiDoc™ XRS+ System (Bio-Rad Laboratories, Hercules, CA, USA). The experiments were performed at least three times. Densitometric analysis was performed using ImageJ 1.41 software (Wayne Rasband, National Institutes of Health, USA).
(In general: Immunoblotting shows a protein as a band on a membrane.)

For a further assay, the system named is HCT116^+/+. Put plainly: Antiproliferative assay (MTS, 72 h) on HCT116 wild type. As to conditions: for IC50: Homo sapiens, HCT-116.
The test system of the next assay is HCT116^−/−. In words: Antiproliferative assay (MTS, 72 h) on HCT116 with p53 deletion. As to conditions: for IC50: Homo sapiens, HCT-116, MTS, 72 h incubation.
Where [2] appears, read: p53 null cells, after the first 12 hours.
Where [3] appears, read: MTS, 72 h incubation, read-out: Activity IC50 HCT116^+/+.

Like-named read-outs stand apart in the source and are kept apart here.

For `O=C(Nc1ccc(F)c(Cl)c1)c1ccc2ccccc2c1O` [5s], the “apoptosis (AO/EB staining)” value with HCT116 cells was “early and late apoptotic cells”. In assay [1] (setting [2]), the p21 protein amount result is listed as “small, insignificant increase”. Moreover, the IC50 in the assay on HCT116^+/+ (setting [3]) was 6870 ± 2480 nM. Also, in the assay with HCT116^−/−, the “selectivity towards the p53 null cells (HCT116 p53^−/− vs wild type)” value is given as “more than eight times more toxic” and the IC50 worked out at 830 ± 310 nM.

In the case of `O=C(Nc1cc(C(F)(F)F)cc(C(F)(F)F)c1)c1ccc2ccccc2c1O` [7f], the “apoptosis (AO/EB staining)” value in the assay on HCT116 cells was “early and late apoptotic cells”. Moreover, the p21 protein amount result in assay [1] (either of the lines tested) is recorded as “did not increase p21”. The IC50 worked out at 460 ± 50 nM in the assay with HCT116^+/+ (setting [3]); 464 nM in the assay on HCT116^+/+ (submicromolar activity level, read-out: IC50 for the HCT116 wild type); 350 ± 80 nM with HCT116^−/−.

`O=C(Nc1cc(C(F)(F)F)cc(C(F)(F)F)c1Cl)c1ccc2ccccc2c1O` [5u]: the “apoptosis (AO/EB staining)” value with HCT116 cells was “early and late apoptotic cells”. The p21 protein amount result in assay [1] (setting [2]) is “small, insignificant increase”. The “selectivity for the wild type over p53 null cells” value in the assay with HCT116^+/+ is on record as “roughly four times more active against the wild type”. For the same compound, the IC50 was 720 ± 280 nM with HCT116^+/+ (setting [3]) and 2720 ± 630 nM in the assay on HCT116^−/−.
